{"source": "paper PMC7390679", "about": "(Bioorganic chemistry, 2020)", "key": {"EV-A71 Tainan/4643/98": {"tested_on": "EV-A71 Tainan/4643/98", "test": "CPE antiviral assay, EV-A71 Tainan/4643/98 in RD cells", "type": "cell-based", "conditions": "read-out: EC50 against EV-A71 Tainan"}, "CVB3": {"tested_on": "CVB3", "test": "CPE antiviral assay, CVB3 in Vero C1008 cells", "type": "cell-based"}, "Vero C1008 cells": {"tested_on": "Vero C1008 cells", "test": "Cytotoxicity in Vero C1008 cells, neutral red method", "type": "cell-based", "conditions": "read-out: CC50 in Vero C1008 cells"}, "CVB3 2C protein": {"target": "CVB3 2C protein (Coxsackievirus B3, UniProt P03313)", "sequence (P03313 1101-1429)": "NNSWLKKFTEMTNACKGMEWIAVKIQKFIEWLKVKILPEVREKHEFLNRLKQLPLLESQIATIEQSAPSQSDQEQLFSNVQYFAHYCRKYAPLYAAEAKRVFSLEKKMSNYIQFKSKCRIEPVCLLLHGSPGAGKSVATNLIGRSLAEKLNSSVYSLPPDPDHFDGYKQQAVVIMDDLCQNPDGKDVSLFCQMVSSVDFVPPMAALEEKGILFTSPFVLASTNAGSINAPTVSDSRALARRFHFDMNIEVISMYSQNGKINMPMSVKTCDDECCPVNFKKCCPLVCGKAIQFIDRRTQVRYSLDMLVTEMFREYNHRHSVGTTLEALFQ", "test": "Differential scanning fluorimetry", "type": "binding", "conditions": "1 mM compound, 4.5 μM 2C, DSF"}, "RD cells": {"tested_on": "RD cells", "test": "Cytotoxicity in RD cells, neutral red method", "conditions": "read-out: CC50 in RD cells, mean ± SD of three repeats"}, "[1]": {"conditions": "Enterovirus B, CVB3, Vero C1008, read-out: EC50 against CVB3"}, "[2]": {"conditions": "read-out: EC50 against CVB3, Vero C1008 cells, CPE assay"}}, "note": "pEC50: −log10 of the molar value. Where a name gives a salt, the structure may show the parent alone. Read-outs that look alike come from different tables or passages of the source."}
{"smiles": "CCCCOc1cc(C(=O)NCCN(CC)CC)c2ccccc2n1", "note": "[dibucaine]", "values": [{"measurement": "pEC50", "setting": "EV-A71 Tainan/4643/98; Enterovirus A, EVA71, RD", "result": "< 5.00"}, {"measurement": "pEC50", "setting": "CVB3; [1]", "result": 5.89}]}
{"smiles": "COc1ccc(CC(C)NCC(O)c2ccc(O)c(NC=O)c2)cc1", "note": "(stereo not drawn) [formoterol]", "values": [{"measurement": "pEC50", "setting": "EV-A71 Tainan/4643/98; Enterovirus A, EVA71, RD", "result": "< 4.00"}, {"measurement": "pEC50", "setting": "CVB3; [1]", "result": 5.00}, {"measurement": "CC50", "setting": "Vero C1008 cells", "result": "> 300", "unit": "µM"}]}
{"smiles": "N=C(N)N", "note": "[guanidine]", "values": [{"measurement": "pEC50", "setting": "EV-A71 Tainan/4643/98; RD cells, CPE assay", "result": 3.04}, {"measurement": "pEC50", "setting": "CVB3; [2]", "result": 3.65}, {"measurement": "CC50", "setting": "Vero C1008 cells", "result": "> 3000", "unit": "µM"}, {"measurement": "Tm shift of CVB3 2C protein", "setting": "CVB3 2C protein", "result": 1.77, "unit": "°C"}, {"measurement": "CC50", "setting": "RD cells", "result": "> 1000", "unit": "µM"}]}
{"smiles": "CNCCC(Oc1ccc(C(F)(F)F)cc1)c1ccccc1", "note": "(stereo not drawn) [fluoxetine]", "values": [{"measurement": "CC50", "setting": "Vero C1008 cells", "result": 11, "unit": "µM"}]}
{"smiles": "Cc1ccc2c(c1)c1c3n2CCNC3CCC1", "note": "(stereo not drawn) [pirlindole mesylate]", "values": [{"measurement": "pEC50", "setting": "EV-A71 Tainan/4643/98; RD cells, CPE assay", "result": "< 4.70"}, {"measurement": "pEC50", "setting": "CVB3; [2]", "result": 5.44}, {"measurement": "CC50", "setting": "Vero C1008 cells", "result": 40.5, "unit": "µM"}, {"measurement": "CC50", "setting": "RD cells", "result": 19, "unit": "µM"}]}
